Laboratory results: US10653651B2, “Kit for treating cancer with low molecular weight components of aurin tricarboxylic acid complex” (Aurin Biotech Inc., priority 2014, dated 2020)
Where two headings read alike, the source gives them in different places.

What was measured:
[1] = test system: BxPC-3 human pancreatic adenocarcinoma cell line; assay: BxPC-3 cell growth in zymosan-activated human serum (MTT cell viability); format: cell-based; details: BxPC-3 cells, RPMI 1640, 15% human serum, 1 μg/mL zymosan, 72 h, n=4, read-out: IC50, inhibition of BxPC-3 cell growth induced by zymosan-activated human serum complement
Procedure: Experiment 1 was designed to determine the effect of ATA, AHA, AQA and ATAC on U251 cell growth in the presence of complement activated human serum. In Experiment 1(a), U251 cells were treated with various concentrations of human serum (1, 5, 7.5, 10, 12.5, 15%) in DMEM and incubated with 1 μg/mL zymosan at 37° C. for 72 h. Control U251 cells (CON) were incubated in fresh DMEM only. As a further control U251 cells were treated with 10% human serum heated at 56° C. for 30 min to heat inactivate complement (HIS) before incubation with 1 μg/ml zymosan. In Experiment 1(b), U251 cells were treated with various concentrations of ATAC, ATA, AQA and AHA (0.1, 1, 5, 10, 30, 50 μM) in DMEM with 15% human serum and incubated with 1 μg/mL zymosan at 37 ° C. for 72 h. In both Experiments 1(a) and 1(b), following incubation, cell viability was evaluated by MTT (3-[4,5-dimethylthiazol-2-yl]-2,5 diphenyl tetrazolium bromide) assays by adding MTT to the cell cultures to reach a final concentration of 1 mg/mL. Following a 1 h incubation at 37° C., the dark crystals formed were dissolved by adding a SDS/DMF extraction buffer (300 μL, 20% sodium dodecyl sulfate, 50% N,N-dimethylformamide, pH 4.7). Plates were subsequently incubated overnight at 37° C. and optical densities at 570 nm were measured by transferring 100 μL aliquots to 96-well plates and using a plate reader with a corresponding filter.
Experiment 5 was designed to determine the effect of ATA, AHA, AQA and ATAC on BxPC-3 cell growth in the presence of complement activated human serum.

[2] = test system: DOHH2 human B-cell carcinoma cells; assay: Lactic dehydrogenase release from DOHH2 cells; format: cell-based
Procedure: Experiment 4 was designed to confirm apoptotic cell death of U251 cells induced by ATA, AQA, AHA, and ATAC by measuring release of lactic dehydrogenase into the cell medium. For serum lactate dehydrogenase determination, reaction supernatants ([…]) were pipetted into the wells of 96-well plates, followed by the addition of […] lactate solution (36 mg/mL in PBS) and […] INT (iodonitrotetrazolium chloride, 2-(4-iodophenyl)-3-(4-nitrophenyl)-5-phenyl-2H-tetrazolium chloride) solution (2 mg/mL in PBS). The enzymatic reaction was started by addition of […] of NAD^+/diaphorase solution (3 mg/mL NAD^+; 2.3 mg solid/mL diaphorase). After 1 h, optical densities were measured with a microplate reader using a 490 nm filter. The amount of LDH released was expressed as a percentage of the value obtained in comparative cells where cells were 100% lysed by 1% Triton X-100.
Experiment 16 was designed to determine if apoptotic cell death of DOHH2 human B-cell carcinoma cells was induced by ATA, AQA, AHA, and ATAC as determined by the release of lactic dehydrogenase into the cell medium. The protocol was identical to that used in Experiment 9(d) except that DOHH2 human B-cell carcinoma cells were used.

[3] = test system: Factor H; assay: Western blot of Factor H expression in A549 cells; format: cell-based, human; details: 10 μM, 1 day, cell extract
Procedure: Experiment 2 was designed to determine the effect of ATA, AQA, and AHA on the expression and release of Factor H and VEGF by U251 cells. Cells were grown in DMEM for 24 h at 37° C., after which ATA, AQA, or AHA was added to the medium at a final concentration of 10 μM and incubation carried out for a further 24 h. The medium was drawn off, and the cells washed with PBS. Lysis buffer was then added to the cells. Forty microliters of the cell lysate, or the supernatant media, were loaded onto 12% polyacrylamide gels and separated under non-reducing conditions (70 V, 3-6 h). Following SDS-PAGE, proteins were transferred to a PVDF membrane (Bio-Rad™, CA) at 30 mA for 2 h. The membranes were blocked with 5% milk in PBS-T (80 mM Na2HPO4, 20 mM NaH2PO4, 100 mM NaCl, 0.1% Tween 20, pH 7.4) for 1 h, and incubated overnight at 4° C. with primary antibodies for Factor H (Cytotech™, goat 1/1000) and for VEGF (Millipore™, rabbit 1/2000). The membranes were then washed 3 times with PBST. They were then treated with an appropriate horseradish peroxidase (HRP)-conjugated secondary antibody for 3 h at room temperature. The secondary antibodies were anti-rabbit IgG (P0448, DAKO™, Mississauga, Ontario, CA, 1/2,000) and anti-goat IgG (AP106P, Millipore™, Billerica, Ma, 1/3,000). […]

[4] = n=4, read-out: IC50, lactate dehydrogenase release from DOHH2 cells

Compound	IC50 [1] [µM]	IC50 ([2]; Homo sapiens, DOHH-2, n=4, read-out: IC50, lactate dehydrogenase release from DOHH2 cells) [µM]	expression of Factor H in A549 cells [3]	IC50 [2, 4] [µM]
O=C(O)C1=CC(=C(c2ccc(O)c(C(=O)O)c2)c2ccc(O)c(C(=O)O)c2)C=CC1=O [ATA, aurin tricarboxylic acid]	6.5	4.9		
aurin hexacarboxylic acid [AHA]	6.8		reduced expression	5.1
aurin quadracarboxylic acid [AQA]	6.7		reduced expression	5
